Experimental data reported in patent US9695155B2, “Herbicidal substituted pyrimidinyloxy benzene compounds” (E. I. DU PONT DE NEMOURS AND COMPANY, priority 2013, dated 2017).

Columns and labels:
large (Lg) crabgrass [1] = experiment: Test C postemergence; format: in vivo, Digitaria sanguinalis; conditions: for Plant response rating (0 to 100), Crabgrass, Large: postemergence; for Plant response rating, Crabgrass, Large: Postemergence, scale 0 to 100 (0 no effect, 100 complete control)
Text: (§1) Seeds of plant species selected from blackgrass (Alopecurus myosuroides), Italian ryegrass (Lolium multiflorum), wheat, winter (winter wheat, Triticum aestivum), galium (catchweed bedstraw, Galium aparine), corn (Zea mays), large (Lg) crabgrass (Digitaria sanguinalis), giant foxtail (Setaria faberii), johnsongrass (Sorghum halepense), lambsquarters (Chenopodium album), morningglory (Ipomoea coccinea), yellow nutsedge (Cyperus esculentus), pigweed (Amaranthus retroflexus), ragweed (common ragweed, Ambrosia elatior), soybean (Glycine max), barnyardgrass (Echinochloa crus-galli), oilseed rape (Brassica napus), waterhemp (common waterhemp, Amaranthus rudis), kochia (Kochia scoparia), wild oat (Avena fatua), surinam grass (Brachiaria decumbens), foxtail, green (green foxtail, Setaria viridis), goosegrass (Eleusine indica), bromegrass, downy (downy bromegrass, Bromus tectorum), nightshade (eastern black nightshade, Solanum ptycanthum), cocklebur (common cocklebur, Xanthium strumarium), cupgrass, woolly (woolly cupgrass, Eriochloa villosa), bermudagrass (Cynodon dactylon), sunflower, (common oilseed sunflower, Helianthus annuus), Russian thistle (Salsola kali), and velvetleaf (Abutilon theophrasti) were planted into a blend of loam soil and sand and treated preemergence with test chemicals formulated in a non-phytotoxic solvent mixture which included a surfactant.
(§2) At the same time, plants selected from these crop and weed species and also barley, winter (winter barley, Hordeum vulgare), windgrass (Apera spica-venti), chickweed (common chickweed, Stellaria media), deadnettle (henbit deadnettle, Lamium amplexicaule), and canarygrass (littleseed canarygrass, Phalaris minor) were planted in pots containing Redi-Earth® planting medium (Scotts Company, 14111 Scottslawn Road, Marysville, Ohio 43041) comprising spaghnum peat moss, vermiculite, wetting agent and starter nutrients and treated with postemergence applications of test chemicals formulated in the same manner. Plants ranged in height from 2 to 18 cm (1- to 4-leaf stage) for postemergence treatments. Treated plants and controls were maintained in a greenhouse for 13 to 15 days, after which time all species were compared to controls and visually evaluated. Plant response ratings, summarized in Table C, are based on a scale of 0 to 100 where 0 is no effect and 100 is complete control. A dash (-) response means no test result.

johnsongrass = experiment: Test C postemergence; format: in vivo, Sorghum halepense; conditions: for Plant response rating (0 to 100), Johnsongrass: postemergence; for Plant response rating, Johnsongrass: Postemergence, scale 0 to 100 (0 no effect, 100 complete control)
Text: as §1, §2

wheat, winter = experiment: Test C postemergence; format: in vivo, Triticum aestivum; conditions: for Plant response rating (0 to 100), Wheat: postemergence; for Plant response rating, Wheat: Postemergence, scale 0 to 100 (0 no effect, 100 complete control)
Text: as §1, §2

velvetleaf = experiment: Test A postemergence; format: in vivo, Abutilon theophrasti
Method in brief: (§3)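 Visual 0–100 rating (100 = complete control) taken about 10 d post-treatment relative to untreated checks. Preemergence: directed soil spray on sown loam/sand pots. Postemergence: seedlings 2–10 cm, 1–2 leaf. Non-phytotoxic solvent formulation with surfactant.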

yellow nutsedge = experiment: Test C postemergence; format: in vivo, Cyperus esculentus; conditions: for Plant response rating (0 to 100), Nutsedge, Yellow: postemergence; for Plant response rating, Nutsedge, Yellow: Postemergence, scale 0 to 100 (0 no effect, 100 complete control)
Text: as §1, §2

corn [2] = experiment: Test A postemergence; format: in vivo, Zea mays
Method in brief: as §3

corn [3] = experiment: Test C postemergence; format: in vivo, Zea mays; conditions: for Plant response rating (0 to 100), Corn: postemergence; for Plant response rating, Corn: Postemergence, scale 0 to 100 (0 no effect, 100 complete control)
Text: as §1, §2

giant foxtail = experiment: Test C postemergence; format: in vivo, Setaria faberii; conditions: for Plant response rating (0 to 100), Foxtail, Giant: postemergence; for Plant response rating, Foxtail, Giant: Postemergence, scale 0 to 100 (0 no effect, 100 complete control)
Text: as §1, §2

barnyardgrass = experiment: Test A postemergence; format: in vivo, Echinochloa crus-galli
Method in brief: as §3

large (Lg) crabgrass [4] = experiment: Test A preemergence; format: in vivo, Digitaria sanguinalis; conditions: for Plant response rating, Crabgrass, Large: 125 g ai/ha, 0 to 100 scale where 0 is no effect and 100 is complete control; for Crabgrass, Large plant response rating: 500 g ai/ha, 0 to 100 scale, 0 no effect, 100 complete control, approx. 10 days
Method in brief: as §3

[5] = 125 g ai/ha, 0 to 100 scale where 0 is no effect and 100 is complete control
[6] = 500 g ai/ha, 0 to 100 scale, 0 no effect, 100 complete control

| Compound | Plant response rating (0 to 100), Crabgrass, Large (large (Lg) crabgrass [1]; 125 g ai/ha) | Plant response rating (0 to 100), Crabgrass, Large (large (Lg) crabgrass [1]; 250 g ai/ha) | Plant response rating, Crabgrass, Large (large (Lg) crabgrass [1]; 31 g ai/ha, 13 to 15 days) | Plant response rating, Crabgrass, Large (large (Lg) crabgrass [1]; 62 g ai/ha) | Plant response rating (0 to 100), Johnsongrass (johnsongrass; 125 g ai/ha) | Plant response rating (0 to 100), Johnsongrass (johnsongrass; 250 g ai/ha) | Plant response rating, Johnsongrass (johnsongrass; 31 g ai/ha, 13 to 15 days) | Plant response rating, Johnsongrass (johnsongrass; 62 g ai/ha) | Plant response rating (0 to 100), Wheat (wheat, winter; 125 g ai/ha) | Plant response rating (0 to 100), Wheat (wheat, winter; 250 g ai/ha) | Plant response rating, Wheat (wheat, winter; 31 g ai/ha, 13 to 15 days) | Plant response rating, Wheat (wheat, winter; 62 g ai/ha) | Plant response rating, Velvetleaf (velvetleaf; [5]) | Plant response rating, Velvetleaf (velvetleaf; [6]) | Plant response rating (0 to 100), Nutsedge, Yellow (yellow nutsedge; 125 g ai/ha) | Plant response rating (0 to 100), Nutsedge, Yellow (yellow nutsedge; 250 g ai/ha) | Plant response rating, Nutsedge, Yellow (yellow nutsedge; 31 g ai/ha, 13 to 15 days) | Plant response rating, Nutsedge, Yellow (yellow nutsedge; 62 g ai/ha) | Plant response rating, Corn (corn [2]; [5]) | Plant response rating, Corn (corn [2]; [6]) | other results |
| --- | --- | --- | --- | --- | --- | --- | --- | --- | --- | --- | --- | --- | --- | --- | --- | --- | --- | --- | --- | --- | --- |
| Fc1cnc(Oc2ccccc2-n2cc(C(F)(F)F)cn2)nc1 [Compound 47] | 5 | 10 | 5 | 5 | 5 | 5 | 0 | 5 | 0 | 0 | 0 | 0 | 100 | 100 | 0 | 10 | 0 | 0 | 40 | 90 | Plant response rating (0 to 100), Corn (corn [3]; 125 g ai/ha): 5; Plant response rating (0 to 100), Corn (corn [3]; 250 g ai/ha): 5; Plant response rating, Corn (corn [3]; 31 g ai/ha, 13 to 15 days): 0; Plant response rating, Corn (corn [3]; 62 g ai/ha): 0; Plant response rating (0 to 100), Foxtail, Giant (giant foxtail; 125 g ai/ha): 25; Plant response rating (0 to 100), Foxtail, Giant (giant foxtail; 250 g ai/ha): 80; Plant response rating, Foxtail, Giant (giant foxtail; 31 g ai/ha, 13 to 15 days): 10; Plant response rating, Foxtail, Giant (giant foxtail; 62 g ai/ha): 25; Plant response rating, Barnyardgrass (barnyardgrass; [5]): 30; Plant response rating, Barnyardgrass (barnyardgrass; [6]): 100; Plant response rating, Crabgrass, Large (large (Lg) crabgrass [4]): 90; Crabgrass, Large plant response rating (large (Lg) crabgrass [4]): 100 |
| N#Cc1cccc(Oc2ncc(Br)cn2)c1-n1cc(Br)cn1 [Compound 57] | 10 | 30 | 5 | 5 | 5 | 20 | 5 | 5 | 10 | 15 | 0 | 5 | 100 | 100 | 5 | 15 | 5 | 5 | 30 | 90 | Plant response rating (0 to 100), Corn (corn [3]; 125 g ai/ha): 20; Plant response rating (0 to 100), Corn (corn [3]; 250 g ai/ha): 20; Plant response rating, Corn (corn [3]; 31 g ai/ha, 13 to 15 days): 10; Plant response rating, Corn (corn [3]; 62 g ai/ha): 15; Plant response rating (0 to 100), Foxtail, Giant (giant foxtail; 125 g ai/ha): 15; Plant response rating (0 to 100), Foxtail, Giant (giant foxtail; 250 g ai/ha): 30; Plant response rating, Foxtail, Giant (giant foxtail; 31 g ai/ha, 13 to 15 days): 10; Plant response rating, Foxtail, Giant (giant foxtail; 62 g ai/ha): 10; Plant response rating, Barnyardgrass (barnyardgrass; [5]): 90; Plant response rating, Barnyardgrass (barnyardgrass; [6]): 100; Plant response rating, Crabgrass, Large (large (Lg) crabgrass [4]): 90; Crabgrass, Large plant response rating (large (Lg) crabgrass [4]): 100 |
